From patent EP1192131B1, “METHOD OF INHIBITING AMYLOID PROTEIN AGGREGATION AND IMAGING AMYLOID DEPOSITS USING ISOINDOLINE DERIVATIVES” (Warner-Lambert Company LLC, priority 1999, dated 2000)
“And” between values parts separate entries of the source, which are not always exact repeats. Identical values can stand only once. Like-named read-outs stand apart in the source and are kept apart here.

Experiments:
Format in all cases: biochemical
Aβ (1-42) = biological target: T1, Aβ (1-42) (Homo sapiens, UniProt P05067); test: BATYM assay, Aβ (1-42) aggregation, Thioflavin T fluorescence
T1 construct: Required Aβ (1-42)(California Peptide) was dried from its hexafluoroisopropanol (HFIP) stock solution; purchased California Peptide
Experimental: Required Aβ (1-42)(California Peptide) was dried from its hexafluoroisopropanol (HFIP) stock solution. The Aβ (1-42) was dissolved in dimethylsulfoxide (DMSO) and then mixed with phosphate buffered saline (PBS) (pH 7.4). The mixed Aβ (1-42) solution was filtered through a […] Omnipore membrane syringe filter (Millipore, Bedford, MA). The compound to be tested in DMSO (50 times concentrate) was put into each well (0.5 µL/well) of a 96-well plate. The Aβ (1-42) solution was added into each well (24.5 µL/well). The plate was centrifuged at 1,000 g for 5 minutes and incubated at 37°C for 1 day (Aβ 1-42; final concentration 100 µM).
After incubation Thioflavin T (ThT) (30 µM) solution in glycine-NaOH buffer (pH 8.5, 50 mM) was added into each well (250 µL/well), fluorescence was measured (ex. 440/20 nm; em 485/20 nm) using a fluorescence plate reader. The inhibitory activity was calculated as the reduction of fluorescence with the following formula: Inhibition (%) = {(F(Aβ)-F(Aβ+compound)}/{F(Aβ)-F (solvent+compound)} × 100 [formula]
The IC50s (concentration of test compound required to cause a 50% inhibition of aggregation) were calculated by a curve fitting program using the following equation. The data were obtained from two different experiments in triplicate. Inhibition (x) = 100-100/{1 + (x/IC50)^n }, [formula] x = concentration of tested compound (M), IC50 = (M), n = Hill coefficient.

Aβ (1-40) peptide = biological target: T2, Aβ (1-40) peptide (Homo sapiens, UniProt P05067); test: BAPA (Beta-Amyloid Peptide Aggregation, pH 6.0), filtration endpoint assay
T2 construct: 10 µL 0.5 mg/mL Aβ (1-40) peptide in 20% HFIP
Experimental: BAPA (Beta-Amyloid Peptide Aggregation
This assay is used to provide a measure of inhibition by a compound against the aggregation behavior of the beta amyloid peptide.
The purpose of this assay is to provide a higher volume method of assaying the amount of beta amyloid aggregation using an endpoint assay based on filtration. In this assay, hexafluoroisopropanol (HFIP) is used to break down the initial amyloid peptide to a monomer state and use a concentration of 33 µM which is high enough so that aggregation will occur at pH 6.0 in several hours.
β-Amyloid Peptide Aggregation. pH 6 0 (BAPA)
In a 96-well plate (Costar 3794), we add 25 µL 50 mM Phosphate Buffer, pH 6.0, 10 µL 0.5 mg/mL Aβ (1-40) peptide in 20% HFIP + 0.1 µL/assay radioiodinated ^125I Aβ (1-40) [^125I Aβ(1-40)], and 1 µL of the compound to be tested starting at 50 mM with a concentration of DMSO <1%. Then, we incubate for 2 to 4 hours at room temperature. We stop the reaction with 200 µL of 50 mM phosphate buffer, pH 6.0, and filter it through a 0.2 µm 96-well filter plate (Millipore MAGU N22) We wash the filter plate with 100 µL of the same phosphate buffer. Aggregation was detected on a Microbeta counter after impregnating the filters with Meltilex (1450-441) and is corrected for background

Aβ(1-40) [1] = biological target: T3, Aβ(1-40) (Homo sapiens, UniProt P05067); test: BASST (Beta-Amyloid Self-seeding, ThioflavinT), inhibition of self-seeded amyloid fibril growth; design: 30 µM soluble Aβ (1-40) in deionized water in assay buffer; conditions: 30 µM soluble Aβ (1-40), 37°C, 3 to 5 hours, thioflavin T fluorescence, letter in parentheses = lot of compound (no letter = Lot P)
Experimental: BASST (Beta-Amyloid Self-seeding, ThioflavinT)
(§1) An assay for inhibitors of self-seeded amyloid fibril growth
Assay Buffer - 50 mM sodium phosphate, pH 7.5, 100 mM NaCl, 0.02% NaN3, 1 M urea (filter and store at 4°C).
Soluble Aβ (1-40) - 2.2 mg/mL in deionized H2O (store in aliquots at -20°C, keep on ice when thawed) will self-seed after 1 week storage. Typically, the solution should be stored until no lag phase is seen in the assay.
Final assay conditions: 30 µM soluble Aβ (1-40) in deionized water in assay buffer. Compound to be tested is dissolved in DMSO, typically 5-50 mM stock, such that the final concentration of DMSO is <1% v/v in the assay.
Assay: Reaction mixture for 50 assays (on ice) comprised of 1 µL of soluble Aβ (1-40) + 13.5 µL assay buffer per assay. The following are the amounts of the components of the reaction mixture that result in each of the 50 assay wells. 50 µL soluble Aβ (1-40) 675 µL assay buffer
• 1) Prepare the reaction mix above by mixing the components and storing on ice. • 2) Pipet 14.5 µL of reaction mixture into each of 50 wells of a polystyrene U-bottom 96-well microtiter plate (Coming 25881-96) on ice. • 3) Add 1.7 µL of diluted compound to be tested to each well in a column of eight, including solvent control. Serial 3-fold dilutions from 1 mM (100 µM final) in assay buffer -urea = 7 dilutions + zero. Each 96-well plate can therefore accommodate 11 samples + 1 Congo Red control (0.039-5 µM final in 2-fold steps). • 4) Seal the plate with aluminum film and incubate for 10 minutes on ice. • 5) Raise the temperature to 37°C and incubate for 3 to 5 hours (depends on the lot of the peptide). • 6) Remove the aluminum film and add 250 µL/well of 5 µM thioflavin T (ThT) [T-3516, Sigma-Aldrich] in 50 mM glycine-NaOH, pH 8.5. Read fluorescence on a plate reader (ex = 440 nm/20 nm; em = 485 nm/20 nm) within 5 minutes.

Aβ(1-40) [2] = biological target: T3, Aβ(1-40); test: BASSR (Beta-Amyloid Self-Seeding Radioassay), inhibition of self-seeded amyloid fibril growth; design: Soluble Aβ(1-40) peptide (Bachem, Torrance, CA); purchased Bachem, Torrance, CA; conditions: 30 µM soluble Aβ (1-40) + 125I-labeled Aβ(1-40), 37°C, 3 to 5 hours, several values in a cell = repeat values, letter in parentheses = lot of compound (no letter = Lot P), (ppt), (v-shape) flags
Experimental: BASSR (Beta-Amyloid Self-Seeding Radioassay)
as §1
Assay Buffer - 50 mM sodium phosphate, pH 7.5, 100 mM NaCl, 0.02% NaN3, 1 M urea (filter and store at 4°C)
Soluble Aβ(1-40) peptide (Bachem, Torrance, CA) - 2.2 mg/mL in deionized H2O (stored in aliquots at -20°C, keep on ice when thawed) will self-seed after 1 week storage. Typically, the solution should be stored until no lag phase is seen in the assay.
^125I-labeled Aβ (1-40) - 150K-350K cpm/µL in 100% acetonitrile -0.1% trifluoroacetic acid (TFA) -1% β-mercaptoethanol (aliquots stored at -20°C) ^125I-labeled Aβ(1-40) can be made in accordance with the procedure set forth by H. LeVine, III in Neurobiol. Aging, 16:755 (1995), which is hereby incorporated by reference, or this reagent may be purchased from Amersham, Arlington Heights, Illinois.
Final assay conditions: 30 µM soluble Aβ (1-40) in deionized water in assay buffer + 20-50K cpm ^125I-labeled Aβ(1-40) per assay. Compound to be tested is dissolved in dimethylsulfoxide (DMSO), typically 5-50 mM stock, such that the final concentration of DMSO is <1% v/v in the assay.
Assay: Reaction mixture for 50 assays (on ice) is comprised of 0.1-0.2 µL of ^125I-labeled A^125I-labeled Aβ(1-40) + 1 µL of soluble Aβ (1-40) + 13.5 µL assay buffer per assay. The following are the amounts of the components of the reaction mixture sufficient for 50 assay wells. 5-10 µL ^125I-labeled Aβ (1-40) dried down 675 µL assay buffer 50 µL soluble Aβ (1-40)
• 1) Prepare reaction mixture above by mixing components and storing on ice. • 2) Pipet 14.5 µL of reaction mixture into each of 50 wells on a polypropylene U-bottom 96-well microtiter plate on ice (Costar 3794). • 3) Add 1.7 µL, of diluted compound to be tested to each well in a column of eight, including solvent control. Serial 3-fold dilutions from 1 mM (100 µM final) in assay buffer -urea = 7 dilutions + zero. Each 96-well plate can therefore accommodate 11 samples + 1 Congo Red control (0.039-5 µM final in 2-fold steps). • 4) Seal the plate with aluminum film (Beckman 538619) and incubate for 10 minutes on ice. • 5) Raise the temperature to 37°C and incubate for 3 to 5 hours (depending on the lot of the peptide). • 6) Remove the aluminum film and add 200 µL/well of ice cold assay buffer with urea, collecting the radiolabeled fibrils by vacuum filtration through 0.2 µm pore size GVWP filters in 96-well plates (Millipore MAGV N22, Bedford, MA). Determine the radioactivity of the filters using standard methods well-known to those skilled in the art.

[3] = Aβ 1-42 final concentration 100 µM, 37°C, 1 day, letter in parentheses = lot of compound (no letter = Lot P), read-out: BATYM IC50
[4] = Aβ (1-40) 33 µM, pH 6.0, 2 to 4 hours at room temperature; letter in parentheses = lot of compound (no letter = Lot P); read-out: BAPA IC50
[5] = read-out: BASST IC50 (converted)
[6] = read-out: BATYM IC50, Aβ 1-42 final concentration 100 µM, 37°C, 1 day, letter in parentheses = lot of compound (no letter = Lot P)
[7] = read-out: BAPA IC50; Aβ (1-40) 33 µM, pH 6.0, 2 to 4 hours at room temperature; letter in parentheses = lot of compound (no letter = Lot P)

T1 sequence (P05067 672-713): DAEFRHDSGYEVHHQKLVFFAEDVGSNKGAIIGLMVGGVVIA
T2 sequence (P05067 672-711): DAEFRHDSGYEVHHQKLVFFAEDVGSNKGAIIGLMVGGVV
T3 sequence (P05067 672-711): as above

For “4-Methoxy-5-nitro-2-[2-(3,4,5-trimethoxyphenyl)-2,3-dihydro-1H-isoindol-5-ylamino]benzoic acid [Example 3]”, the IC50 (Aβ (1-42); [3]) was 17.4 µM, the IC50 (Aβ (1-40) peptide; [4]) was 64 µM and the IC50 (Aβ(1-40) [1]; [5]) was 3 µM and 2.1 µM.
In the case of `O=C(O)c1cccnc1Nc1ccc2c(c1)CN(c1ccc(Cl)c(Cl)c1)C2` [Example 24, 2-[2-(3,4-Dichloro-phenyl)-2,3-dihydro-1H-isoindol-5-ylamino]-nicotinic acid], the IC50 (Aβ(1-40) [1]; read-out: BASST IC50) is reported as 0.3 µM and the IC50 (Aβ(1-40) [2]; read-out: BASSR IC50) is reported as 18 µM.
With `O=C(O)c1cc([N+](=O)[O-])ccc1Nc1ccc2c(c1)CN(c1cccc(Cl)c1)C2` [Example 11, 2-[2-(3-Chloro-phenyl)-2,3-dihydro-1H-isoindol-5-ylamino]-5-nitro-benzoic acid] the IC50 (Aβ (1-42); [6]) was 12.6 µM, the IC50 (Aβ (1-40) peptide; [7]) was greater than 100 µM and the IC50 (Aβ(1-40) [1]; read-out: BASST IC50) was 0.8 µM and 1 µM.
In the case of `O=C(O)c1ccccc1Nc1ccc2c(c1)CN(c1ccccc1)C2` [Example 13, 2-(2-Phenyl-2,3-dihydro-1H-isoindol-5-ylamino)-benzoic acid], the IC50 (Aβ (1-42); [6]) is reported as 90.2 µM and 60 µM and > 100 µM and 79.7 µM and 83 µM and the IC50 (Aβ(1-40) [2]; read-out: BASSR IC50) is reported as > 100 µM and 52 µM and 60 µM.
For `COc1ccc(N2Cc3ccc(Nc4ccccc4C(=O)O)cc3C2)c(OC)c1OC` [Example 1, 2-[2-(2,3,4-Trimethoxy-phenyl)-2,3-dihydro-1H-isoindol-5-ylamino]-benzoic acid], the IC50 (Aβ (1-42); [3]) was 11.3 µM and 46.4 µM and 59.7 µM, the IC50 (Aβ (1-40) peptide; [4]) was 72 µM and the IC50 (Aβ(1-40) [1]; [5]) was 2 µM and 1.6 µM and 3 µM (2×) and 15 µM (2×).
`O=C(O)c1cc([N+](=O)[O-])ccc1Nc1ccc2c(c1)CN(c1cccc(Cl)c1)C2` [Example 14, 2-[2-(3-Chloro-phenyl)-2,3-dihydro-1H-isoindol-5-ylamino]-5-nitro-benzoic acid] was tested, and the IC50 (Aβ (1-42); [6]) was 12.6 µM, the IC50 (Aβ (1-40) peptide; [7]) was greater than 100 µM and the IC50 (Aβ(1-40) [1]; read-out: BASST IC50) was 0.8 µM and 1 µM.
In the case of `O=C(O)c1cc([N+](=O)[O-])ccc1Nc1ccc2c(c1)CN(c1ccc(Cl)c(Cl)c1)C2` [Example 5, 2-[2-(3,4-Dichlorophenyl)-2,3-dihydro-1H-isoindol-5-ylamino]-5-nitro-benzoic acid], the IC50 (Aβ (1-42); [3]) is reported as 11.4 µM, the IC50 (Aβ(1-40) [1]; [5]) is reported as 3 µM and the IC50 (Aβ(1-40) [2]; read-out: BASSR IC50 (converted)) is reported as 5 µM and 4.1 µM and 3 µM.
